For assay [1], the target named is T1, MAGL (Mus musculus (Mouse), UniProt O35678). Put plainly: In vitro competitive activity-based protein profiling (mouse brain membrane fraction, FP-Rh probe), MAGL band.
Protocol: (§1) Biological Evaluation In Vitro Competitive Activity-Based Protein Profiling.
(§2) Proteomes (mouse brain membrane fraction for mouse assays; human prefrontal cortex membrane fractions for human assays) (50 mL, 1.0 mg/mL total protein concentration) were preincubated with varying concentrations of inhibitors at 37° C. After 30 min, FP-Rh (1.0 mL, 50 mM in DMSO) was added and the mixture was incubated for another 30 min at 37° C. Reactions were quenched with SDS loading buffer (15 μL-4×) and run on SDS-PAGE.
The target in assay [2] is MAGL (Homo sapiens (Human), UniProt Q99685). Put plainly: In vitro competitive activity-based protein profiling (human prefrontal cortex membrane fractions, FP-Rh probe), MAGL band. The note with it: human prefrontal cortex membrane fractions; for IC50: read-out: MAGL IC50 (μM) (human).
Chain of MAGL (Homo sapiens (Human), UniProt Q99685) (Q99685 whole entry): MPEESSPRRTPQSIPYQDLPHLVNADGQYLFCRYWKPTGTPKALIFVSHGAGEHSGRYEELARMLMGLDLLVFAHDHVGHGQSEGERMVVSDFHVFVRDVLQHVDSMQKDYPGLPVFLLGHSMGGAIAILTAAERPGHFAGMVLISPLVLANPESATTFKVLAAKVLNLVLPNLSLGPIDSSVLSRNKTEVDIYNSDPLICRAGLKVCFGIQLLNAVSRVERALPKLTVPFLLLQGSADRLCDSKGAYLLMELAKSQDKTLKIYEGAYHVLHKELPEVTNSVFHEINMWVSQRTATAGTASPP
In assay [3] the target is T2, FAAH (Mus musculus (Mouse), UniProt O08914). In words: In vitro competitive activity-based protein profiling (mouse brain membrane fraction, FP-Rh probe), FAAH band.
T2 sequence (O08914 whole entry): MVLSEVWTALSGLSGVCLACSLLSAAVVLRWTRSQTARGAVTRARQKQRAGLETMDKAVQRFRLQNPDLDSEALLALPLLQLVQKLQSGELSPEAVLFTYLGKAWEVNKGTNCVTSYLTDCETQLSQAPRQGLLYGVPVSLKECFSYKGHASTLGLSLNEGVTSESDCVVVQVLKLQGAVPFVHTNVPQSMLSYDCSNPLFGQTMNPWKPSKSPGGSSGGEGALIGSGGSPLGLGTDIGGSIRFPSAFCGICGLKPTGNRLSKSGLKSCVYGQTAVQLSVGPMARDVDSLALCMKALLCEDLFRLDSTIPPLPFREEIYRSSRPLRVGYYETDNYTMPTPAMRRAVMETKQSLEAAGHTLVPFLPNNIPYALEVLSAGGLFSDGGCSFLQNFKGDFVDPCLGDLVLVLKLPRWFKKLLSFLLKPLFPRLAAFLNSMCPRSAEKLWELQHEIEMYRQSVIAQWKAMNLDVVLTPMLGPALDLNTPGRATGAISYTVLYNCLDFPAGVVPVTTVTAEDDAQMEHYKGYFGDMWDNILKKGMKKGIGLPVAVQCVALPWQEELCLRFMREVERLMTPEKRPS
Protocol: as §1, §2
Assay [4] deals with FAAH (Homo sapiens (Human), UniProt O00519). Put plainly: In vitro competitive activity-based protein profiling (human prefrontal cortex membrane fractions, FP-Rh probe), FAAH band. To be noted: human prefrontal cortex membrane fractions; for IC50: read-out: FAAH IC50 (μM) (human).
Chain of FAAH (Homo sapiens (Human), UniProt O00519) (O00519 whole entry): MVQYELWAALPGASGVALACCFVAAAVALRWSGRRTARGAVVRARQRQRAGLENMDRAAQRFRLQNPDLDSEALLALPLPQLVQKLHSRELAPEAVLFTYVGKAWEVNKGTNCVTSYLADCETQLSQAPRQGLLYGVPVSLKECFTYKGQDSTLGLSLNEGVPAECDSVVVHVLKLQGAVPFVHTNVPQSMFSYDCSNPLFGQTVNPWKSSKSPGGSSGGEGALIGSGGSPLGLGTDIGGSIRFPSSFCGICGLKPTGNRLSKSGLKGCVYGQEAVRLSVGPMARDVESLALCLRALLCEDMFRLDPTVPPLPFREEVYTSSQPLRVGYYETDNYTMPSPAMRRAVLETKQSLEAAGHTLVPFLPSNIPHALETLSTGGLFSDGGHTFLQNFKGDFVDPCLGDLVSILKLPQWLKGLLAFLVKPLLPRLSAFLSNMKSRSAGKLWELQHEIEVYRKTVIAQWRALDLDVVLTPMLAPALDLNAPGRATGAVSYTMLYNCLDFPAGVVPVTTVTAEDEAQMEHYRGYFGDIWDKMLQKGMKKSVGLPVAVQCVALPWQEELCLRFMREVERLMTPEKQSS
Protocol: as §1, §2
For assay [5], the target named is T2, FAAH. In words: Mouse brain proteomes from inhibitor treated mice (oral gavage, sacrificed 4 h after administration, brain proteomes analyzed), FAAH. Type of assay: in vivo. To be noted: 5 mg/kg oral gavage, read-out: FAAH % inh. 5 mg/kg (mouse).
Assay [6] deals with T2, FAAH. Put plainly: Mouse brain proteomes from inhibitor treated mice (oral gavage, sacrificed 4 h after administration), FAAH. The note with it: 5 mg/kg oral gavage. Type of assay: in vivo.
The target of assay [7] is T1, MAGL. Put plainly: Mouse brain proteomes from inhibitor treated mice (oral gavage, sacrificed 4 h after administration, brain proteomes analyzed). To be noted: 5 mg/kg oral gavage. Type of assay: in vivo.

A value given as a limit tells only on which side of the number the result lay.

T1 sequence (O35678 whole entry): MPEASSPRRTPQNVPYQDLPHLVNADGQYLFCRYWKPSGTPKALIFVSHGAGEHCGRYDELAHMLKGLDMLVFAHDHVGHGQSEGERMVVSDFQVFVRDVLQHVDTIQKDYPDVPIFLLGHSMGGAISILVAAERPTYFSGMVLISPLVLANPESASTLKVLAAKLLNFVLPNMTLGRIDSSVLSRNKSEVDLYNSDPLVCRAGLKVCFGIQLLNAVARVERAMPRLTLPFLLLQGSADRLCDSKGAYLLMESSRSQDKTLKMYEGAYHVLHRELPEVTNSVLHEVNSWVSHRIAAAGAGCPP

Take `O=C(O)c1ccn(C(=O)N2CCC3(CCN(Cc4cc(F)cc(C(F)(F)F)c4)C3)CC2)n1` [Example 152, 1-(2-(3-fluoro-5-(trifluoromethyl)-benzyl)-2,8-diazaspiro[4.5]-decane-8-carbonyl)-1H-pyrazole-3-carboxylic acid]: in assay [1], the “MAGL % inh. 1 μM (mouse)” value is on record as “A (% inhibition is greater than or equal to 75%)”. Besides, the “MAGL % inh. 1 μM (human)” value in assay [2] was “A (% inhibition is greater than or equal to 75%)”. Also, the “FAAH % inh. 1 μM (mouse)” value in assay [3] was “B (% inhibition is greater than or equal to 50% and less than 75%)”. For the same compound, the “FAAH % inh. 1 μM (human)” value in assay [4] is “D (% inhibition is greater than or equal to 0% and less than 25%)”.
For `O=C(O)c1ccn(C(=O)N2CCC3(CCN(Cc4cccc(OC(F)(F)F)c4)C3)CC2)n1` [Example 153, 1-(2-(3-(trifluoromethoxy)-benzyl)-2,8-diazaspiro[4.5]-decane-8-carbonyl)-1H-pyrazole-3-carboxylic acid], the “MAGL % inh. 1 μM (mouse)” value in assay [1] is reported as “A (% inhibition is greater than or equal to 75%)”. Moreover, the “MAGL % inh. 1 μM (human)” value in assay [2] was “A (% inhibition is greater than or equal to 75%)”. For the same compound, the “FAAH % inh. 1 μM (mouse)” value in assay [3] is “C (% inhibition is greater than or equal to 25% and less than 50%)”. The “FAAH % inh. 1 μM (human)” value in assay [4] is “D (% inhibition is greater than or equal to 0% and less than 25%)”.
For the compound `O=C(O)c1ccn(C(=O)N2CCC3(CCCN3C(=O)c3ccc(C(F)(F)F)cc3N3CCCC3)CC2)n1` [Example 403, 1-(1-(2-(pyrrolidin-1-yl)-4-(trifluoromethyl)-benzoyl)-1,8-diazaspiro[4.5]-decane-8-carbonyl)-1H-pyrazole-3-carboxylic acid], the inhibition at 5 mg/kg in assay [5] is 0 to 25%.
As for `O=C(O)c1ccn(C(=O)N2C[C@H]3C[C@H](OCc4ccc(Oc5ccc(Cl)cc5)cc4)C[C@H]3C2)n1` [Example 55, 1-(trans-5-((4-(4-chlorophenoxy)-benzyl)oxy)-octahydrocyclopenta-[c]pyrrole-2-carbonyl)-1H-pyrazole-3-carboxylic acid], the IC50 in assay [2] and in assay [4] was below 0.1 µM in each case.
Turning to `CN(Cc1cccc(C(F)(F)F)c1)C1CCN(C(=O)n2ccc(C(N)=O)n2)CC1` [Example 176, 1-(4-(methyl(3-(trifluoromethyl)-benzyl)amino)-piperidine-1-carbonyl)-1H-pyrazole-3-carboxamide], the IC50 in assay [2] and in assay [4] was below 0.1 µM in each case.
With `C#Cc1ccc(CN2CCN(C(=O)n3ccc(C(N)=O)n3)CC2)cc1` [Example 144, 1-(4-(4-ethynylbenzyl)-piperazine-1-carbonyl)-1H-pyrazole-3-carboxamide], the IC50 in assay [2] and in assay [4] was below 0.1 µM each time.
In the case of `O=C(O)c1ccn(C(=O)N2CCC3(CCCN3Cc3ccc(C(F)(F)F)cc3N3CCCCC3)CC2)n1` [Example 404, 1-(1-(2-(piperidin-1-yl)-4-(trifluoromethyl)-benzyl)-1,8-diazaspiro[4.5]-decane-8-carbonyl)-1H-pyrazole-3-carboxylic acid], the inhibition at 5 mg/kg in assay [5] lay in the range of 0 to 25%.
`NC(=O)c1ccn(C(=O)N2CCC3(CCN(Cc4ccc(N5CCCC5)cc4C(F)(F)F)C3)CC2)n1` [Example 195, 1-(2-(4-(pyrrolidin-1-yl)-2-(trifluoromethyl)-benzyl)-2,8-diazaspiro[4.5]-decane-8-carbonyl)-1H-pyrazole-3-carboxamide]: the IC50 in assay [2] and in assay [4] was below 0.1 µM in each case.
On to `O=C(O)c1ccn(C(=O)N2C[C@H]3C[C@H](Oc4cccc(-c5ccccc5)c4)C[C@H]3C2)n1` [Example 125, 1-(trans-5-([1,1′-biphenyl]-3-yloxy)-octahydrocyclopenta-[c]pyrrole-2-carbonyl)-1H-pyrazole-3-carboxylic acid], for which the IC50 in assay [2] and in assay [4] was below 0.1 µM each time.
For `NC(=O)c1ccn(C(=O)N2CC3CN(Cc4cc(Cl)cc(C(F)(F)F)c4)CC3C2)n1` (stereo not drawn) [Example 201, 1-(5-(3-chloro-5-(trifluoromethyl)-benzyl)-octahydropyrrolo-[3,4-c]pyrrole-2-carbonyl)-1H-pyrazole-3-carboxamide], the IC50 in assay [2] and in assay [4] was below 0.1 µM throughout.
As to `O=C(O)c1ccn(C(=O)N2CCC3(CCCN3Cc3ccc(C(F)(F)F)cc3Cl)CC2)n1` [Example 76, 1-(1-(2-chloro-4-(trifluoromethyl)-benzyl)-1,8-diazaspiro[4.5]-decane-8-carbonyl)-1H-pyrazole-3-carboxylic acid], the “FAAH % inh. 5 mg/kg (mouse)” value in assay [6] was “D (% inhibition is greater than or equal to 0% and less than 25%)”. The “MAGL % inh. 5 mg/kg (mouse)” value in assay [7] was “D (% inhibition is greater than or equal to 0% and less than 25%)”. Moreover, the “MAGL % inh. 1 μM (mouse)” value in assay [1] is recorded as “A (% inhibition is greater than or equal to 75%)”. Further, the “MAGL % inh. 1 μM (human)” value in assay [2] is “A (% inhibition is greater than or equal to 75%)”. For the same compound, the “FAAH % inh. 1 μM (mouse)” value in assay [3] was “D (% inhibition is greater than or equal to 0% and less than 25%)”. The “FAAH % inh. 1 μM (human)” value in assay [4] is “D (% inhibition is greater than or equal to 0% and less than 25%)”.
As to `O=C(O)c1nn(C(=O)N2CCC3(CCCN3Cc3cc4ccc(C(F)(F)F)cc4s3)CC2)cc1Cl` [Example 139, 4-chloro-1-(1-((6-(trifluoromethyl)-benzo[b]thiophen-2-yl)methyl)-1,8-diazaspiro[4.5]-decane-8-carbonyl)-1H-pyrazole-3-carboxylic acid], the IC50 in assay [2] and in assay [4] was below 0.1 µM each time.

The record behind these values is patent US10927105B1 (Lundbeck La Jolla Research Center, Inc., priority 2017, dated 2021).
